Data on 22 compounds can be found in US9133235B2, “Macrocyclic antagonists of the motilin receptor for treatment of gastrointestinal dysmotility disorders” (Ocera Therapeutics, Inc., priority 2006, dated 2015).

Assay [1] has as its target T1, human motilin receptor (Homo sapiens, UniProt O43193). As to the kind of experiment: Competitive radioligand binding assay (motilin receptor). Details: purchased PerkinElmer (SignalScreen) 6110544; host or cells: CHO cells, stably transfected; membranes. The settings on record: [125I]-motilin competition, membranes of CHO cells with human motilin receptor; read-out: Ki. On the procedure: A. Competitive Radioligand Binding Assay (Motilin Receptor)
The competitive binding assay at the human motilin receptor was carried out analogously to assays described in the literature.
• Membranes were prepared from CHO cells stably transfected with the human motilin receptor and utilized at a quantity of 1.5 μg/assay point. [PerkinElmer™ SignalScreen Product #6110544] • [^125I]-Motilin (PerkinElmer, #NEX-378); final concentration: 0.04-0.06 nM • Motilin (Bachem™, #H-4385); final concentration: 1 μM • Multiscreen Harvest plates-GF/B (Millipore™, #MAHFB1H60) • Deep-well polypropylene titer plate (Beckman Coulter™, #267006) • TopSeal-A (PerkinElmer, #6005185) • Bottom seal (Millipore, #MATAH0P00) • MicroScint-0 (PerkinElmer, #6013611) • Binding Buffer: 50 mM Tris-HCl (pH 7.4), 10 mM MgCl2, 1 mM EDTA, 0.1% BSA Assay Volumes: • 150 μL of membranes diluted in binding buffer • 10 μL of compound diluted in binding buffer • 10 μL of radioligand ([^125I]-Motilin) diluted in binding buffer Final Test Concentrations (N=11) for Compounds: • 10, 5.0, 2.0, 1.0, 0.50, 0.20, 0.10, 0.050, 0.020, 0.010, 0.0050 μM. Compound Handling:
Compounds were provided frozen on dry ice at a stock concentration of 10 mM diluted in 100% DMSO and stored at −20° C. until the day of testing. On the test day, compounds were allowed to thaw at room temperature and than diluted in assay buffer according to the desired test concentrations. Under these conditions, the maximum final DMSO concentration in the assay was 0.5%.
In deep-well plates, diluted cell membranes (1.5 μg/mL) are combined with 10 μL of either binding buffer (total binding, N=5), 1 μM motilin (non-specific binding, N=3) or the appropriate concentration of test compound. The reaction is initiated by addition of 10 μL of [^125I]-motilin (final conc. 0.04-0.06 nM) to each well. Plates are sealed with TopSeal-A, vortexed gently and incubated at room temperature for 2 hours. The reaction is arrested by filtering samples through pre-soaked (0.3% polyethyleneimine, 2 h) Multiscreen Harvest plates using a Tomtec Harvester, washed 9 times with 500 μL of cold 50 mM Tris-HCl (pH 7.4), and than plates are air-dried in a fumehood for 30 minutes. A bottom seal is applied to the plates prior to the addition of 25 μL of MicroScint-0 to each well. Plates are than sealed with TopSeal-A and counted for 30 sec per well on a TopCount Microplate Scintillation and Luminescence Counter (PerkinElmer) where results are expressed as counts per minute (cpm).
Data are analyzed by GraphPad™ Prism® (GraphPad Software, San Diego, Calif.) using a variable slope non-linear regression analysis.
[formula] where total and non-specific binding represent the cpm obtained in the absence or presence of 1 μM motilin, respectively.

Assay [2] concerns the target T1, human motilin receptor. As to the kind of experiment: Aequorin functional assay (motilin receptor). Details: host or cells: CHO-K1 cells co-expressing Gα16 and mitochondrially targeted Aequorin. In kind it is cell-based. To be noted: functional activity, antagonist testing vs motilin 0.5 nM (EC80). As to the method:
B. Aequorin Functional Assay (Motilin Receptor)
The evaluation of compounds of the invention for functional activity can be conducted according to literature methods or as described below. (Carreras, C. W.; Siani, M. A.; Santi, D. V.; Dillon, S. B. Anal. Biochem. 2002, 300, 146-151.)
• Membranes were prepared using AequoScreen™ (EUROSCREEN, Belgium) cell lines expressing the human motilin receptor (cell line ES-380-A; receptor accession #AF034632). This cell line is constructed by transfection of the human motilin receptor into CHO-K1 cells co-expressing Gα16 and the mitochondrially targeted Aequorin (Ref. #ES-WT-A5). • Motilin (Bachem, #H-4385) • Assay buffer: DMEM-F12 (Dulbeccoe's Modified Eagles Medium) with 15 mM HEPES and 0.1% BSA (pH 7.0) • Coelenterazine (Molecular Probes™, Leiden, The Netherlands) Final Test Concentrations (N=5) for Compounds: • 10, 3.16, 1.0, 0.316, 0.10 μM. Compound Handling:
Compounds were provided as dry films at a quantity of approximately 1.2 μmol in pre-formatted 96-well plates. Compounds were dissolved in 100% DMSO at a concentration of 10 mM and stored at −20° C. until further use. Daughter plates were prepared at a concentration of 500 μM in 30% DMSO with 0.1% BSA and stored at −20° C. until testing. On the test day, compounds were allowed to thaw at room temperature and than diluted in assay buffer according to the desired test concentrations. Under these conditions, the maximum final DMSO concentration in the assay was 0.6%.
Cells are collected from culture plates with Ca^2+ and Mg^2+-free phosphate buffered saline (PBS) supplemented with 5 mM EDTA, pelleted for 2 minutes at 1000×g, resuspended in assay buffer (see above) at a density of 5×10^6 cells/mL and incubated overnight in the presence of 5 μM coelenterazine. After loading, cells were diluted with assay buffer to a concentration of 5×10^5 cells/mL.
For agonist testing, 50 μL of the cell suspension was mixed with 50 μL of the appropriate concentration of test compound or motilin (reference agonist) in 96-well plates (duplicate samples). The emission of light resulting from receptor activation was recorded using the Functional Drug Screening System 6000 ‘FDSS 6000’ (Hamamatsu Photonics K. K., Japan).
For antagonist testing, an approximate EC80 concentration of motilin (i.e. 0.5 nM; 100 μL) was injected onto the cell suspension containing the test compounds (duplicate samples) 15-30 minutes after the end of agonist testing and the consequent emission of light resulting from receptor activation was measured as described in the paragraph above.
Results are expressed as Relative Light Units (RLU). Concentration response curves were analyzed using GraphPad™ Prism® (GraphPad Software, San Diego, Calif.) by non-linear regression analysis (sigmoidal dose-response) based on the equation E=Emax/(1+EC50/C)n where E is the measured RLU value at a given agonist concentration (C), Emax is the maximal response, EC50 is the concentration producing 50% stimulation and n is the slope index. For agonist testing, results for each concentration of test compound were expressed as percent activation relative to the signal induced by motilin at a concentration equal to the EC80 (i.e. 0.5 nM). For antagonist testing, results for each concentration of test compound were expressed as percent inhibition relative to the signal induced by motilin at a concentration equal to the EC80 (i.e. 0.5 nM).

Each structure is given as a SMILES string.

T1 sequence (O43193 whole entry): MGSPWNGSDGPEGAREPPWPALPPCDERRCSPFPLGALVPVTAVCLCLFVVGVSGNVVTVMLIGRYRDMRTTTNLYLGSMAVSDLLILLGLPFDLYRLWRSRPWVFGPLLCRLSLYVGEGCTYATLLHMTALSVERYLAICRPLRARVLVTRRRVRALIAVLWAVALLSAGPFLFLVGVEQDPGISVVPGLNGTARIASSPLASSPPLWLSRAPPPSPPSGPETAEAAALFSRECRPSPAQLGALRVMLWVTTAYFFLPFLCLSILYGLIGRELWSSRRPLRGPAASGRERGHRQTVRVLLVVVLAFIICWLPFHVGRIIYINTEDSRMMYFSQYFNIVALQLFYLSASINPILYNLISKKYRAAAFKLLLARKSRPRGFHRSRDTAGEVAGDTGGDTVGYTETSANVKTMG

Regarding `CC(C)[C@H]1NC(=O)[C@@H](Cc2cccc(F)c2)N[C@@H](C)COc2ccccc2CCCNC(=O)[C@H](CN=[N+]=[N-])NC1=O` [Compound 538], in assay [1], the Ki was no more than 10 nM. Also, in assay [2], the IC50 was no more than 1 nM.
The like results for `CC(C)[C@H]1NC(=O)[C@@H](Cc2cccc(C(F)(F)F)c2)NCCOc2ccccc2CCCNC(=O)[C@H](Cn2cccc2)NC1=O` [Compound 539] were, in that order, no more than 10 nM and no more than 1 nM.
The like results for `CC(C)[C@H]1NC(=O)[C@@H](Cc2cccc(F)c2)N[C@@H](C)COc2ccccc2CCCNC(=O)[C@H](Cn2cccc2)NC1=O` [Compound 540] were, in that order, no more than 10 nM and no more than 1 nM.
The corresponding values for `CC(C)[C@H]1NC(=O)[C@@H](Cc2cccc(C(F)(F)F)c2)NCCOc2ccccc2CCCNC(=O)[C@H](CN)NC1=O` [Compound 542] are no more than 100 nM and no more than 10 nM.
Turning to `CC(C)[C@H]1NC(=O)[C@@H](Cc2cccc(F)c2)N[C@@H](C)COc2ccccc2CCCNC(=O)[C@H](CN)NC1=O` [Compound 543], the Ki in assay [1] is no more than 100 nM. This compound had an IC50 in assay [2] of no more than 100 nM.
For `CC(C)[C@H]1NC(=O)[C@@H](Cc2cccc(F)c2)N[C@@H](C)COc2ccccc2C[C@H](C)CNC(=O)[C@H](CN)NC1=O` [Compound 544], the Ki in assay [1] was no more than 10 nM. Moreover, in assay [2], the IC50 was no more than 1 nM.
On to `CC(C)[C@H]1NC(=O)[C@@H](Cc2cccc(F)c2)N[C@@H](C)COc2ccccc2C[C@H](C)CNC(=O)[C@H](CN=[N+]=[N-])NC1=O` [Compound 545], for which the Ki in assay [1] was no more than 10 nM. The compound further yielded an IC50 in assay [2] of no more than 1 nM.
For the compound `CNC[C@@H]1NC(=O)[C@@H](C(C)C)NC(=O)[C@@H](Cc2cccc(F)c2)N[C@@H](C)COc2ccccc2C[C@H](C)CNC1=O` [Compound 546], the Ki in assay [1] is no more than 10 nM. Moreover, the IC50 in assay [2] was no more than 1 nM.
The corresponding values for `CNC[C@@H]1NC(=O)[C@@H](C(C)C)NC(=O)[C@@H](Cc2cccc(C(F)(F)F)c2)NCCOc2ccccc2CCCNC1=O` [Compound 547] are no more than 10 nM and no more than 10 nM.
The like results for `CNC[C@@H]1NC(=O)[C@@H](C(C)C)NC(=O)[C@@H](Cc2cccc(F)c2)N[C@@H](C)COc2ccccc2CCCNC1=O` [Compound 548] were, in that order, no more than 10 nM and no more than 10 nM.
The corresponding values for `CC(C)[C@H]1NC(=O)[C@@H](Cc2cccc(F)c2)N[C@@H](C)COc2ccccc2C[C@H](C)CNC(=O)[C@H](CNc2ncccn2)NC1=O` [Compound 550] are no more than 10 nM and no more than 1 nM.
`C[C@H]1COc2ccccc2CCCNC(=O)[C@H](CC2CC2)NC(=O)[C@@H](C2CC2)NC(=O)[C@@H](Cc2cccc(F)c2)N1` [Compound 555]: the Ki in assay [1] was no more than 10 nM. Besides, the IC50 in assay [2] was no more than 1 nM.
For the compound `CCC[C@@H]1NC(=O)[C@@H](C)NC(=O)[C@@H](Cc2cccc(F)c2)N[C@@H](C)COc2ccccc2CCCNC1=O` [Compound 557], the Ki in assay [1] is no more than 10 nM. The compound also registered an IC50 in assay [2] of no more than 10 nM.
Turning to `CCC[C@@H]1NC(=O)[C@@H](C(C)C)NC(=O)[C@@H](Cc2cccc(F)c2)N[C@@H](C)COc2cnccc2CCCNC1=O` [Compound 565], in assay [1], the inhibition constant (Ki) was no more than 10 nM. The compound further came in with an IC50 in assay [2] of no more than 10 nM.
Regarding `COC[C@@H]1NC(=O)[C@@H](C(C)C)NC(=O)[C@@H](Cc2cccc(F)c2)N[C@@H](C)COc2ccccc2CCCNC1=O` [Compound 569], the Ki in assay [1] was no more than 10 nM. The compound further came in with an IC50 in assay [2] of no more than 10 nM.
For `CCC[C@@H]1NC(=O)[C@@H](C(C)C)NC(=O)[C@@H](Cc2cccc(F)c2)N[C@@H](C)COc2ccccc2C[C@H](C)CNC1=O` [Compound 570], in assay [1], the Ki was no more than 10 nM. In assay [2], this compound yielded an IC50 of no more than 1 nM.
The like results for `CCC[C@@H]1NC(=O)[C@@H](C(C)C)NC(=O)[C@@H](Cc2cccs2)N[C@@H](C)COc2ccccc2CCCNC1=O` [Compound 571] were, in that order, no more than 10 nM and no more than 10 nM.
The corresponding values for `CCC[C@@H]1NC(=O)[C@@H](C(C)C)NC(=O)[C@@H](Cc2ccsc2)N[C@@H](C)COc2ccccc2CCCNC1=O` [Compound 572] are no more than 10 nM and no more than 1 nM.
The like results for `CCC[C@@H]1NC(=O)[C@@H](C(C)C)NC(=O)[C@@H](Cc2cccc(F)c2)N[C@@H](C)COc2cccnc2CCCNC1=O` [Compound 573] were, in that order, no more than 100 nM and no more than 10 nM.
As to `CCC[C@@H]1NC(=O)[C@@H](C(C)C)NC(=O)[C@@H](Cc2cccc(F)c2)N[C@@H](C)COc2ncccc2CCCNC1=O` [Compound 574], in assay [1], the Ki is no more than 100 nM. The IC50 in assay [2] was no more than 1000 nM.
In the case of `CC(C)[C@H]1NC(=O)[C@@H](Cc2cccc(Cl)c2)NCCOc2ccccc2C[C@H](C)CNC(=O)[C@H](CC2CC2)NC1=O` [Compound 585], the Ki in assay [1] was no more than 10 nM. In assay [2], this compound came in with an IC50 of no more than 10 nM.
As to `CC(C)[C@H]1NC(=O)[C@@H](Cc2cccc(Cl)c2)NCCOc2ccccc2C[C@@H](C)CNC(=O)[C@H](CC2CC2)NC1=O` [Compound 586], the Ki in assay [1] was no more than 100 nM. The IC50 in assay [2] is no more than 100 nM.
